Measured values taken from patent US20050014681A1, “Medicinal compositions for nasal absorption” (priority 2001, published 2005).

Columns and labels:
[1] = background statement; cited from earlier work
blood glucose level = test: Blood glucose level decreasing effect of nasally administered incretin hormones in glucose-loaded rats; type: in vivo; conditions: nasal powder about 100 μg polypeptide, 15 min after dosing, 10 min after 0.5 g/kg i.v. glucose, control 196
Description: As for the composition containing incretin hormones, the blood glucose level fell as compared with the control group. Moreover, also the incretin hormones, the blood glucose level fell when composition containing 5% corn starch is added compared with when 5% corn starch is not added.

in vivo = conditions: male, SD (Crj: CD), rat, plasma
Description: (§1) An anti-rabbit IgG goat serum was then added, and the mixture was allowed to stand for 1 hour at 4° C. The resulting sample was centrifuged and the radioactivity (gamma-ray) of the precipitate was measured by a gamma counter.
Male SD rats, aged 7 to 9 weeks and weighing about 250 g (Crj: CD, Charles River Japan Inc.,), were kept in a metal cage with a day/night cycle of 12 hours while maintaining the temperature at 22±5° C. and the humidity at 30 to 70%. The rats were allowed to feed freely on solid feed and tap water and were fasted for 24 hours prior to the test (3 animals per group).
[…] The blood was collected into a tube containing anticoagulant and enzyme inhibitor at 0, 5, 10, 15, 20, 30, 60, and 90 minutes after administration and was centrifuged to obtain plasma. […] For subcutaneous administration, the sample solution for subcutaneous administration (about 15 μg/mL) was subcutaneously administered in the back of the rats using a syringe at a dosage of 1 mL/kg.

[2] = Absorbability of powder preparation for nasal administration using dogs (RIA); conditions: beagle, dog, in vivo, 50 ug/kg
Description: as §1
As a control, one additive-free sample of the composition for nasal administration was prepared.

[3] = Absorbability of powder preparation for nasal administration using cynomolgus monkeys, Test-1 (RIA); conditions: cynomolgus monkey, in vivo, sc, 13 ug/kg
Description: as §1
Each additive was added to the pharmaceutical composition in amounts of 0.5%, 1.0%, 10% and 50% with respect to the total weight of the preparation.
The bioavailability was determined by comparing the AUC after nasal administration with the AUC after subcutaneous administration.

For casein, the “isoelectric point (pI)” value [1] is given as “about 4.6”.

In the case of “[Lys^26, ε-NH{γ-Glu(N-α-palmitoyl)}]-GLP-1 (7-37)”, the “blood glucose level (Mean)” value (blood glucose level; composition: 5% corn starch) is reported as 154 mg/dL and the “blood glucose level (Mean)” value (blood glucose level; composition: No additive) is reported as 184 mg/dL.

With “[Val^8]-GLP-1 (7-37) (HVEGTFTSDVSSYLEGQAAKEFIAWLVKGRG; Glucagon-like peptide 1(7-37); UniProt P01275 98-128, looked up, variant A8V) [[Val^8]-GLP-1(7-37)]” the “blood glucose level (Mean)” value (blood glucose level; composition: 5% corn starch) was 147 mg/dL and the “blood glucose level (Mean)” value (blood glucose level; composition: No additive) was 168 mg/dL.

For `CC[C@H](C)[C@H](NC(=O)[C@H](Cc1ccccc1)NC(=O)[C@H](CCC(=O)O)NC(=O)[C@H](CCCCN)NC(=O)[C@H](C)NC(=O)[C@H](C)NC(=O)[C@H](CCC(N)=O)NC(=O)CNC(=O)[C@H](CCC(=O)O)NC(=O)[C@H](CC(C)C)NC(=O)[C@H](Cc1ccc(O)cc1)NC(=O)[C@H](CO)NC(=O)[C@H](CO)NC(=O)[C@@H](NC(=O)[C@H](CC(=O)O)NC(=O)[C@H](CO)NC(=O)[C@@H](NC(=O)[C@H](Cc1ccccc1)NC(=O)[C@@H](NC(=O)CNC(=O)[C@H](CCC(=O)O)NC(=O)[C@H](C)NC(=O)[C@@H](N)Cc1c[nH]cn1)[C@@H](C)O)[C@@H](C)O)C(C)C)C(=O)N[C@@H](C)C(=O)N[C@@H](Cc1c[nH]c2ccccc12)C(=O)N[C@@H](CC(C)C)C(=O)N[C@H](C(=O)N[C@@H](CCCCN)C(=O)NCC(=O)N[C@@H](CCCNC(=N)N)C(N)=O)C(C)C` [GLP-1(7-36)NH2, GLP-1 (7-36)NH2], the AUC (in vivo; inhaled or intranasal, 1 ug/kg) was 2.47 ± 1.44 ng·h/mL, the Cmax (in vivo; inhaled or intranasal, 1 ug/kg) was 4.7 ± 3.28 ng/mL and the AUC (in vivo; sc, 15 ug/kg) was 3.82 ± 0.58 ng·h/mL. The Cmax (in vivo; sc, 15 ug/kg) was 6.68 ± 0.86 ng/mL, the AUC(0-inf) [2] was 5.15 ± 5.13 ng·h/mL and the Cmax [2] was 20.4 ± 3.48 ng/mL. It also gave an AUC(0-inf) [3] of 3.23 ± 0.5 ng·h/mL and a Cmax [3] of 6.37 ± 2.54 ng/mL.

For Exendin-4, the “blood glucose level (Mean)” value (blood glucose level; composition: 5% corn starch) was 151 mg/dL and the “blood glucose level (Mean)” value (blood glucose level; composition: No additive) was 166 mg/dL.

With GLP-1 (7-37) [GLP-1(7-37)] the “blood glucose level (Mean)” value (blood glucose level; composition: 5% corn starch) was 146 mg/dL and the “blood glucose level (Mean)” value (blood glucose level; composition: No additive) was 170 mg/dL.
